Earlier results, collected in US20110105434A1, “2-AMINO PURINE DERIVATIVES AND THEIR USE AS ANTI-HERPETIC AGENTS” (priority 2007, published 2011).

Conditions: oral maximum dose of 800 mg 5 times per day, most patients; cited from earlier work

Question: For `Nc1nc2c(ncn2COCCO)c(=O)[nH]1` [acyclovir, 2-amino-9-1,-dihydro-9-[(2-hydroxyethyl)methyl]-6H-purin-6-one], which blood level is on record?
Answer: about 1.61 ng/mL
